# Measurements published in article PMC8533206 (Antioxidants, 2021).
# Counter-ions that a name gives are not always drawn. Like-named read-outs stand apart in the source and are kept apart here.
# Assays:
# [1] = Protective effect against 6-OHDA-induced cytotoxicity in PC12 cells (MTT); conditions: rat
# Experimental: (§1) PC12 cells were routinely maintained in RPMI-1640 media containing 100 IU/mL penicillin, and 100 μg/mL streptomycin supplemented by 10% heat-inactivated HS, 5% FBS in a humidified incubator containing 5% CO2 and 95% air at 37 °C [25]. The cell culture media was changed every two days. To perform experiments, cells were plated on poly-D-lysine/laminin-coated 24-well plates at a density of 3 × 10^5 cells/well and incubated for at least 24 h to allow cell adhesion.
# (§2) To examine the effects of the test compounds on cell survival, cells were incubated in low serum media (1% HS, 1% FBS, 100 IU/mL penicillin, and 100 μg/mL streptomycin) with test compounds at the concentrations of 10 and 30 μM or an equivalent volume of vehicle control (DMSO at the final concentration of 0.3%) for 24 h. The media containing test compounds was sonicated at room temperature for 30 min to assure adequate dissolution in the media. […]
# (§3) After the desired treatment, cell viability was determined by MTT assay as described previously, with slight modification. […] The absorbance of the dissolved solution was measured at 550 nm using a microplate reader (SpectraMax M2e, Molecular Devices, Sunnyvale, CA, USA). The cell viability was presented as the percentage of the absorbance measured in the vehicle-treated control cells. […]
# PC12 cells [2] = assay: 6-OHDA-induced ROS generation in PC12 cells (H2-DCFDA); type: cell-based, rat
# Experimental: (§4) The involvement of oxidative stress in the observed reduction in cell viability was investigated using the fluorescent dye H2-DCFDA as described previously. Briefly, cells were loaded with 10 μM H2-DCFDA for 30 min at 37 °C. Subsequently, cells were exposed for 4 h to 10 μM of test compounds followed by the addition of 50 μM 6-OHDA or 1 μM rotenone for 20 h, and fluorescence was measured spectrophotometrically at 488/520 nm in a microplate reader (SpectraMax M2e). N-acetylcysteine (NAC, 5 mM) was included as a […] control for oxidative stress.
# MAO-A = conditions: cited from earlier work
# MAO-B = conditions: cited from earlier work; for % MAO-B Inhibition: single dose 10 μM; for Selectivity Index (SI): MAO-B over MAO-A, calculated
# PC12 cells [3] = assay: Rotenone-induced ROS generation in PC12 cells (H2-DCFDA); type: cell-based, rat; conditions: 5 mM, positive reference
# Experimental: as §4
# PC12 cells [4] = assay: Protective effect against rotenone-induced cytotoxicity in PC12 cells (MTT); conditions: 1 μM rotenone, 24 h, compared to vehicle-treated control
# Experimental: as §1, §2, §3
# [5] = previously reported indazole derivatives
compound,measurement,setting,value
"NCCc1cc(O)c(O)cc1O [Compound 6-OHDA, 6-Hydroxydopamine, reference compound]","viability at 24 h, 50 μM",[1],47.5 ± 1.2%
same,"ROS generation, fold of control cells","PC12 cells [2]; 6-OHDA 50 μM, 20 h",approximately 4 fold
Cn1cc(C(=O)Nc2ccc3[nH]ncc3c2)ccc1=O [IV],IC50,MAO-A; [5],> 10000 nM
same,IC50,MAO-B; [5],> 10000 nM
O=C(Nc1ccc2c(ccn2Cc2ccc(F)cc2)c1)c1cnccn1 [IX],IC50,MAO-A; previous study,> 100000 nM
same,IC50,MAO-B; previous study,1660 nM
same,% MAO-B Inhibition,MAO-B; previous study,88.49%
"CC(=O)N[C@@H](CS)C(=O)O [NAC, N-acetylcysteine, reference compound]",Effect on 6-OHDA-induced ROS generation,"PC12 cells [2]; 5 mM, positive reference",dramatic inhibition of ROS
same,Effect on rotenone-induced ROS generation,PC12 cells [3],dramatic inhibition of ROS
"O=C(Nc1ccc2c(ccn2C(=O)c2cccc(F)c2)c1)c1cnccn1 [VIII, N-(1-(3-fluorobenzoyl)-1H-indol-5-yl)pyrazine-2-carboxamide]",IC50,MAO-A; previous study,> 100000 nM
same,Selectivity Index (SI),MAO-B; previous study,> 120
same,IC50,MAO-B; previous study,777 nM
same,% MAO-B Inhibition,MAO-B; previous study,66.39%
O=C(Nc1ccc2[nH]ncc2c1)c1c(F)cccc1Cl [VI],IC50,MAO-A; [5],> 10000 nM
same,IC50,MAO-B; [5],3300 nM
O=C(Nc1ccc2[nH]ncc2c1)c1cccc(Cl)c1Cl [V],IC50,MAO-A; [5],> 10000 nM
same,IC50,MAO-B; [5],2590 nM
O=C(Nc1ccc2c(ccn2Cc2ccccn2)c1)c1cnccn1 [X],% MAO-B Inhibition,MAO-B; previous study,2.38%
COc1ccc2c(c1)[nH]c1c(C)nccc12 [harmine],IC50,MAO-A; selective MAO-A inhibitor,6 nM
"C=C(C)[C@H]1Cc2c(ccc3c2O[C@@H]2COc4cc(OC)c(OC)cc4[C@@H]2C3=O)O1 [rotenone, reference compound]",Cell death of PC12 cells exposed to toxin,PC12 cells [4],53.1 ± 2.9%
